Legend:
HER2 = target: T1, HER2 (Homo sapiens, UniProt P04626); test: Inhibition of phosphorylation of receptor tyrosine (HER2) in human breast cancer cells MCF-7; assay type: cell-based; settings: MCF-7 cells, test compound 2 hours, then heregulin 0.8 μg/mL for 5 minutes
T1 construct: amount of phosphorylation of HER2 tyrosine of the cells; endogenous in cells; host or cells: MCF-7 human breast cancer cell line
Method: Inhibition of Phosphorylation of Receptor Tyrosine in Human Breast Cancer Cells
In each well of a 24-well plate, 500 μl of the cell suspension ([…]) of human breast cancer cell line MCF-7 was seeded and incubated at 37° C. in a 5% carbon dioxide gas incubator. On the next day, 250 μl of a 4-fold serial dilution of a solution of a test compound was added to each well and, 2 hours later, 250 μl of a heregulin solution, which was adjusted so as to be the final concentration of 0.8 μg/mL, was added thereto. After 5 minutes, an extracting solution was added thereto to terminate the reaction as well as to extract a protein. The protein was fractionated by protein electrophoresis and the protein in the electrophoretic gel was transferred to a nylon filter. The filter was reacted with a phosphorylated tyrosine-specific antibody. The reaction product was fluorescence-labeled and was exposed to a photo-film. The intensity of the exposure on the photo-film was quantitated by an image-analyzing apparatus.

[1] = test system: human breast cancer cell line BT-474; test: In vitro inhibition of growth of breast cancer cell BT-474; assay type: cell-based; settings: 120 h, BT-474 cells, heregulin, cultured for 5 days, SRB staining
Method: In vitro Inhibition of Growth of Breast Cancer Cell BT-474
In each well of a 96-well microtiter plate, 100 μl (containing 1,000 cells) of a cell suspension of human breast cancer cell line BT-474 was seeded and incubated at 37° C. in a 5% carbon dioxide gas incubator. On the next day, 100 μl of the 2-fold serial dilution of a solution of each test compound prepared by using 250 μl of a heregulin solution, which was adjusted so as to be the final concentration of 0.8 μg/mL, was added to each well and cultured for 5 days. The solution containing the test compound was removed and the cells were washed and fixed with a 50% trichloroacetic acid solution. To the cells was added a 0.4% (W/V) solution of pigment SRB (dissolved in 1% acetic acid) to fix as well as stain the cell protein (Skehan P. et al., Journal of the National Cancer Institute Vol. 82, pp. 1107-1112, 1990). The pigment solution was removed and the remainder was washed with a 1% acetic acid solution. Then, 100 μl of an extracting solution (10 mM Tris buffer) was added thereto to extract the pigment. The optical density of the extract at the wavelength of 550 nm was measured to determine the amount of the cells in terms of the amount of the protein. The proportion of the amount of remaining protein of each treated group was determined by taking the amount of protein of the control to which no solution of a test compound was added as 100% to calculate the value of the concentration of the compound required for inhibiting the remaining cells by 50% of that of the control (IC50)

[2] = test system: Human breast cancer cell line BT-474; test: In vivo breast cancer inhibiting effect (BT-474 implanted in nude mice); settings: nude mice with BT-474 tumors, orally twice daily 30 mg/kg body weight for 10 days
Method: In Vivo Breast Cancer Inhibiting Effect
Human breast cancer cell line BT-474 (5,000,000 cells) were suspended in a gel-matrix solution. The suspension was subcutaneously implanted in the breast of 6-week-old female Balb/C strain nude mice (Friedman R. et al., Proceedings of the National Academy of Sciences of the U.S.A. Vol. 87, pp. 6698-6702, 1990). At the time of the implantation and seven days after the implantation, an estradiol dipropionate solution (5 mg/mL) was intramuscularly administered to the hind leg for the purpose of enhancing a take ratio of tumors. Fourteen days after the implantation, the diameters of tumors were determined. For the experiment were used 5 mice per group with similar tumor size. Each of compounds (4, 6, 14, 17, 19, 20, 23, 24 and 26) of the present invention was suspended in a 5% gum arabic solution (physiological saline) and administered orally twice daily in dose of 30 mg/kg body weight for 10 days. On the day when the administration was terminated, the diameters of tumors were measured. Tumor volume was calculated by the following equation.
Volume of tumor=longest diameter×shortest diameter×shortest diameter×½
The growth rate of tumors was calculated as the proportion of the value obtained by subtracting the initial volume from the final volume in the group to which the drug was administered, to the value obtained by subtracting the initial volume from the final volume in the control group to which a gum arabic solution was administered.

T1 sequence (P04626 23-1255): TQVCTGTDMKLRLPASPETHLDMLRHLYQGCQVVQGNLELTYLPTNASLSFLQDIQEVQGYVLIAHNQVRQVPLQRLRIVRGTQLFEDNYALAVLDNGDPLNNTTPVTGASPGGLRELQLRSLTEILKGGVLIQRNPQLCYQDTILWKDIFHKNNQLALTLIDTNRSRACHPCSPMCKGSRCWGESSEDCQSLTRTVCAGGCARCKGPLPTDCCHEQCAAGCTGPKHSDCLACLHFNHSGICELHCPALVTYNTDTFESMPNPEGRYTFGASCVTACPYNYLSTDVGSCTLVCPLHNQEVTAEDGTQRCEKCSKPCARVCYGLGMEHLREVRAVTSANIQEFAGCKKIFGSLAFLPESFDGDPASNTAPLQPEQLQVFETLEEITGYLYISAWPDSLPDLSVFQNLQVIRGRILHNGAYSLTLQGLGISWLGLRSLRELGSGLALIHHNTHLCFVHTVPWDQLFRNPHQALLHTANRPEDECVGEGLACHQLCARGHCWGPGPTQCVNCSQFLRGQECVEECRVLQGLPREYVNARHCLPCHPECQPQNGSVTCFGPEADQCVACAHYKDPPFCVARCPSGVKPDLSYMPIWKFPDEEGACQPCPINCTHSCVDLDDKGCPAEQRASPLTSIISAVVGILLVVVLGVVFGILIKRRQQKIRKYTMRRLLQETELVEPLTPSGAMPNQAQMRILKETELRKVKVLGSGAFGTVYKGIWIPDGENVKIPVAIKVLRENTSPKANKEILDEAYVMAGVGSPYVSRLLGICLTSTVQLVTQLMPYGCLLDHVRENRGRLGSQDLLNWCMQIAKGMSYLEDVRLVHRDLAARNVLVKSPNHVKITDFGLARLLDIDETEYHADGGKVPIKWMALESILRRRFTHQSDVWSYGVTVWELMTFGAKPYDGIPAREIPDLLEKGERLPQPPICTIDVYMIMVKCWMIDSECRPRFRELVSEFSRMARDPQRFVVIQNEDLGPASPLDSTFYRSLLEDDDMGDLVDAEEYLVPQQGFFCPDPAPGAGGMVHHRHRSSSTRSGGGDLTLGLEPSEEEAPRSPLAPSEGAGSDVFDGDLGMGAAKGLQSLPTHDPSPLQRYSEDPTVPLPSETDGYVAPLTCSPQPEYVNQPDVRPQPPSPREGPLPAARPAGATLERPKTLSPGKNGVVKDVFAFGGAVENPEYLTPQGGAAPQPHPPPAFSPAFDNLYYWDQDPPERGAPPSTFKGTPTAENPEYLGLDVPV

SMILES	IC50 (HER2)	melting point	IC50 [1]	Inhibition ratio (%) [2]
Fc1ccc(/C=C/c2nc(COc3cccc(CCCn4ccnn4)c3)co2)cc1 [B3, 1-{3-[3-({2-[(E)-2-(4-Fluorophenyl)ethenyl]-1,3-oxazol-4-yl}methoxy)phenyl]propyl}-1H-1,2,3-triazole]	0.18 µM	105 to 106 °C	< 0.05 µM	
FC(F)(F)c1ccc(/C=C/c2nc(COc3ccc(CCCn4ccnn4)cc3)co2)cc1 [B5, 1-(3-{4-[(2-{(E)-2-[4-(Trifluoromethyl)phenyl]ethenyl}-1,3-oxazol-4-yl)methoxy]phenyl}propyl)-1H-1,2,3-triazole]		157 to 158 °C	< 0.05 µM	
Fc1ccc(/C=C/c2nc(COc3ccc(CCCCn4ccnn4)cc3)co2)c(F)c1 [B7, 1-{4-[4-({2-[(E)-2-(2,4-Difluorophenyl)ethenyl]-1,3-oxazol-4-yl}methoxy)phenyl]butyl}-1H-1,2,3-triazole]		115 to 117 °C		
Fc1ccc(/C=C/c2nc(COc3cccc(CCCn4ccnn4)c3)co2)c(F)c1 [B8, 1-{3-[3-({2-[(E)-2-(2,4-Difluorophenyl)ethenyl]-1,3-oxazol-4-yl}methoxy)phenyl]propyl}-1H-1,2,3-triazole]		89 to 90 °C		
Cc1ccc(/C=C/c2nc(COc3ccc(CCCCn4ccnc4CCO)cc3)co2)cc1 [B10, 2-[1-[4-[4-[[2-[(E)-2-(4-Methylphenyl)ethenyl]-1,3-oxazol-4-yl]methoxy]phenyl]butyl]-1H-imidazol-2-yl]-1-ethanol]		108 to 109 °C		
Cc1cccc(/C=C/c2nc(COc3ccc(CCCCn4ccnc4CCO)cc3)co2)c1 [B11, 2-[1-[4-[4-[[2-[(E)-2-(3-Methylphenyl)ethenyl]-1,3-oxazol-4-yl]methoxy]phenyl]butyl]-1H-imidazol-2-yl]-1-ethanol]	1.1 µM	109 to 111 °C	< 0.05 µM	
Cc1ccccc1/C=C/c1nc(COc2ccc(CCCCn3ccnc3CCO)cc2)co1 [B12, 2-[1-[4-[4-[[2-[(E)-2-(2-Methylphenyl)ethenyl]-1,3-oxazol-4-yl]methoxy]phenyl]butyl]-1H-imidazol-2-yl]-1-ethanol]		91 to 93 °C		
CCc1ccc(/C=C/c2nc(COc3ccc(CCCCn4ccnc4CCO)cc3)co2)cc1 [B13, 2-[1-[4-[4-[[2-[(E)-2-(4-Ethylphenyl)ethenyl]-1,3-oxazol-4-yl]methoxy]phenyl]butyl]-1H-imidazol-2-yl]-1-ethanol]		94 to 95 °C		
OCCc1nccn1CCCCc1ccc(OCc2coc(/C=C/c3ccc(F)cc3)n2)cc1 [B14, 2-(1-{4-[4-({2-[(E)-2-(4-Fluorophenyl)ethenyl]-1,3-oxazol-4-yl}methoxy)phenyl]butyl}-1H-imidazol-2-yl)-1-ethanol]		130 to 132 °C		
OCCc1nccn1CCCCc1ccc(OCc2coc(/C=C/c3ccc(Cl)cc3)n2)cc1 [B15, 2-[1-[4-[4-[[2-[(E)-2-(4-Chlorophenyl)ethenyl]-1,3-oxazol-4-yl]methoxy]phenyl]butyl]-1H-imidazol-2-yl]-1-ethanol]		127 to 128 °C		
OCCc1nccn1CCCCc1ccc(OCc2coc(/C=C/c3ccc(Br)cc3)n2)cc1 [B16, 2-[1-[4-[4-[[2-[(E)-2-(4-Bromophenyl)ethenyl]-1,3-oxazol-4-yl]methoxy]phenyl]butyl]-1H-imidazol-2-yl]-1-ethanol]		149 to 150 °C		
OCCc1nccn1CCCc1ccc(OCc2coc(/C=C/c3ccc(F)cc3F)n2)cc1 [B20, 2-[1-[3-[4-[[2-[(E)-2-(2,4-Difluorophenyl)ethenyl]-1,3-oxazol-4-yl]methoxy]phenyl]propyl]-1H-imidazol-2-yl]-1-ethanol]	1.5 µM	94 to 96 °C	< 0.05 µM	
Cc1cccc(/C=C/c2nc(COc3ccc(CCCCn4ccnc4CC(O)CO)cc3)co2)c1 (centres unmarked) [B22, 3-(1-{4-[4-({2-[(E)-2-(3-Methylphenyl)ethenyl]-1,3-oxazol-4-yl}methoxy)phenyl]butyl}-1H-imidazol-2-yl)-1,2-propanediol]	1.9 µM	102 to 104 °C	< 0.05 µM	
OCC(O)Cc1nccn1CCCCc1ccc(OCc2coc(/C=C/c3ccc(F)cc3)n2)cc1 (centres unmarked) [B23, 3-(1-{4-[4-({2-[(E)-2-(4-Fluorophenyl)ethenyl]-1,3-oxazol-4-yl}methoxy)phenyl]butyl}-1H-imidazol-2-yl)-1,2-propanediol]		114 to 116 °C		27%

Further lines, with some results ahead:

IC50 (HER2)	melting point	IC50 [1]	SMILES	Inhibition ratio (%) [2]
	142 to 143 °C		OCC(O)Cc1nccn1CCCCc1ccc(OCc2coc(/C=C/c3ccc(C(F)(F)F)cc3)n2)cc1 (centres unmarked) [B24, 3-[1-(4-{4-[(2-{(E)-2-[4-(Trifluoromethyl)phenyl]ethenyl}-1,3-oxazol-4-yl)methoxy]phenyl}butyl)-1H-imidazol-2-yl]-1,2-propanediol]	28%
	102 to 104 °C		OCC(O)Cc1nccn1CCCc1cccc(OCc2coc(/C=C/c3ccc(C(F)(F)F)cc3)n2)c1 (centres unmarked) [B25, 3-[1-(3-{3-[(2-{(E)-2-[4-(Trifluoromethyl)phenyl]ethenyl}-1,3-oxazol-4-yl)methoxy]phenyl}propyl)-1H-imidazol-2-yl]-1,2-propanediol]	
	92 to 94 °C		OCC(O)Cc1nccn1CCCc1cccc(OCc2coc(/C=C/c3ccc(F)cc3F)n2)c1 (centres unmarked) [B27, 3-(1-{3-[3-({2-[(E)-2-(2,4-Difluorophenyl)ethenyl]-1,3-oxazol-4-yl}methoxy)phenyl]propyl}-1H-imidazol-2-yl)-1,2-propanediol]	
	123 to 125 °C		OCC(O)Cc1nccn1CCCCc1ccc(OCc2coc(/C=C/c3c(F)cccc3F)n2)cc1 (centres unmarked) [B28, 3-[1-[4-[4-[[2-[(E)-2-(2,6-Difluorophenyl)ethenyl]-1,3-oxazol-4-yl]methoxy]phenyl]butyl]-1H-imidazol-2-yl]-1,2-propanediol]	
1.9 µM	124 to 125 °C	< 0.05 µM	Fc1ccc(/C=C/c2nc(COc3ccc(CCCCn4ccnn4)cc3)co2)cc1 [Reference Example B2, 1-{4-[4-({2-[(E)-2-(4-Fluorophenyl)ethenyl]-1,3-oxazol-4-yl}methoxy)phenyl]butyl}-1H-1,2,3-triazole]	
1.2 µM	115 to 116 °C	< 0.05 µM	FC(F)(F)c1ccc(/C=C/c2nc(COc3cccc(CCCn4ccnn4)c3)co2)cc1 [Reference Example B6, 1-(3-{3-[(2-{(E)-2-[4-(Trifluoromethyl)phenyl]ethenyl}-1,3-oxazol-4-yl)methoxy]phenyl}propyl)-1H-1,2,3-triazole]	28%
	93 to 95 °C	0.017 µM	OCCc1nccn1CCCCc1ccc(OCc2coc(/C=C/c3ccc(F)cc3F)n2)cc1 [Reference Example B19, 2-[1-[4-[4-[[2-[(E)-2-(2,4-Difluorophenyl)ethenyl]-1,3-oxazol-4-yl]methoxy]phenyl]butyl]-1H-imidazol-2-yl]-1-ethanol]	
0.92 µM		< 0.05 µM	OCC(O)Cc1nccn1CCCCc1ccc(OCc2coc(/C=C/c3ccc(F)cc3F)n2)cc1 (centres unmarked) [Reference Example B26, 3-(1-{4-[4-({2-[(E)-2-(2,4-Difluorophenyl)ethenyl]-1,3-oxazol-4-yl}methoxy)phenyl]butyl}-1H-imidazol-2-yl)-1,2-propanediol]	15%

Reference: patent US20040053972A1, “Medicinal compositions having improved absorbability” (priority 2000, published 2004)
